Reference: patent publication US20140357713A1, “ANTIMICROBIAL COMPOUNDS AND METHODS OF USE” (NexMed Holdings, Inc., priority 2012, published 2014)
Values after ≈ are worked out from the molar mass of the structure shown.

Columns and labels:
[1] = tested on: Pseudomonas aeruginosa (ATCC 27853); experiment: Minimum inhibitory concentration (MIC) assay, Example 33; format: cell-based; conditions: for MIC: Table 19 summary
Method: (§1) Thirty compounds were tested for antimicrobial activity using standard procedures and standard strains for both the minimum inhibitory concentration (MIC) assay and a time kill study. Both the MIC assay and the time kill study were performed according to Clinical and Laboratory Standards Institute (CLSI) guidelines. Three bacteria strains, Escherichia coli (ATCC 25922), Pseudomonas aeruginosa (ATCC 27853), Staphulococcus aureus (ATCC 29213), and two fungus strains, Candida albicans (ATCC 90029) and Aspergillus niger (CMCC 98003), were used in the experiments.
(§2) Preparation of cultures. Before the experiment, two days for the bacteria strains and five days for fungus strains, an aliquot was removed from the cultures frozen at −80° C. Medium was added to the surface of an appropriate agar plate and streaked with the aliquot. The plate was incubated for 20 to 24 hrs at 35±2° C. for bacteria or for 5 days at 26-30° C. in incubator for fungus. From the resulting growth on each plate, one isolated colony of similar morphology was selected and re-streaked onto a fresh agar plate using a sterile disposable loop. The plate was incubated 20 to 24 hrs at 35±2° C. or for 5 days at 26-30° C. in an incubator.
(§3) Preparation of Assay Plates with Medium and Drugs. On the day of the assay, CAMHB medium or RPMI 1640 medium was removed from 4′C storage and allowed to reach room temperature. Ninety microliters (μL) of room temperature CAMHB or RPMI 1640 (supplemented with the appropriate concentration of DMSO, if required) were added to rows B-G of each 96-well microtiter plate. Using a pipette, duplicate 180 μL aliquots of each drug stock solution were added to column 1 (e.g. A1 and B1 or C1 and D1 or E1 and F1 or G1 and H1). Using a multichannel pipette or the Provision 2000 liquid handler, serial 2-fold dilutions (90 μL) were performed in each row across the plate to row G. Eighty μL of compounds dilutions were transferred to a 96-deep well plate. Medium, 1,520 μL of CAMHB or RPMI 1640, was added to each well. The contents of the wells were mixed thoroughly. A 50 μL aliquot of each of the resulting mixtures was transferred to a 96-well assay plate.
(§4) For bacteria, a sterile inoculating loop was used to transfer growth from an agar plate culture into about 5 mL of test medium. Using a turbidity meter, this inoculum was adjusted so that its density (600 nm) was equivalent to a 0.5 McFarland barium sulfate standard (0.08-0.13). The resulting suspension was diluted 1:100 into medium to obtain two times test inoculums.
(§5) For Aspergillus niger, sporulating colonies were covered with RPMI 1640, and a suspension was prepared by gently probing the colonies with the tip of a transfer pipette. The suspension was transferred to a sterile tube and mixed with a vortex mixer for 15 seconds. The densities at 530 nm were adjusted to 0.09-0.13 for each sample. The resulting suspension was diluted 1:50 with the medium to obtain two times test inoculums. Fifty μL/well of this inoculum suspension was added to wells of drug-containing plates (1:2 dilution). Plates were incubated at 35° C. for the appropriate times. The MIC was read and recorded according to CLSI guidelines.
(§6) The MIC values for thirty compounds against Escherichia coli, Pseudomonas aeruginosa, Staphulococcus aureus, Candida albicans, and Aspergillus niger were recorded and are presented in Table 3 and Table 4.

[2] = tested on: Escherichia coli (ATCC 25922); experiment: as above; format: cell-based; conditions: for MIC: Table 19 summary of Example 33 and Example 35
Method: as §1, §2, §3, §4, §5, §6

[3] = tested on: Pseudomonas aeruginosa (ATCC 27853); experiment: Time kill study, Example 33 (0 to 5 min); format: cell-based; conditions: 1×MIC
Method: as §1
(§7) The viable counts in Log10 CFU/mL at each time point were recorded.
(§8) Time kill studies. Strain suspensions were prepared as described above for the MIC test, and strain suspensions and compound solutions were mixed in the same volume. Samples were removed at specified times including 0 min, 30 sec, 1 min and 5 mins, were diluted in the test medium and streaked on agar. Colonies were counted after 24 to 48 hrs of incubation. […]

[4] = tested on: Escherichia coli (ATCC 25922); experiment: Time kill study, Example 33 (0 to 5 min); format: cell-based; conditions: 1×MIC
Method: as §1, §7, §8

[5] = tested on: Staphylococcus aureus (ATCC 29213); experiment: Time kill study, Example 33 (0 to 5 min); format: cell-based; conditions: 1×MIC
Method: as §1, §7, §8

[6] = tested on: Candida albicans (ATCC 90029); experiment: Minimum inhibitory concentration (MIC) assay, Example 33; format: cell-based; conditions: for MIC: Table 19 summary
Method: as §1, §2, §3
For Candida albicans, a sterile inoculating loop was used to transfer growth from an agar plate culture into a tube with RPMI1640 medium. This inoculum was adjusted so that its density at 530 nm was in the ranges from 0.08 to 0.13. The resulting suspension was diluted 1:50 and further diluted 1:20 with the medium to obtain two times test inoculums.
as §5, §6

pH (Table 1) = format: physicochemical
[7] = tested on: Staphulococcus aureus (ATCC 29213); experiment: Minimum inhibitory concentration (MIC) assay, Example 33; format: cell-based, Staphylococcus aureus; conditions: for MIC: Table 19 summary
Method: as §1, §2, §3, §4, §5, §6

[8] = tested on: Aspergillus niger (CMCC 98003); experiment: as above; format: cell-based; conditions: for MIC: Table 19 summary
Method: as §1, §2, §3, §5, §6

| SMILES | MIC [1] [µg/mL] | MIC P. aeruginosa ([1]; n = 1) [µg/mL] | MIC P. aeruginosa ([1]; n = 2) [µg/mL] | MIC [2] [µg/mL] | MIC E. coli ([2]; n = 1) [µg/mL] | MIC E. coli ([2]; n = 2) [µg/mL] | Viable counts, Pseudomonas aeruginosa time kill study ([3]; 0.5 min) [Log10 CFU/mL] | Viable counts, Pseudomonas aeruginosa time kill study ([3]; 1 min) [Log10 CFU/mL] | Viable counts, Pseudomonas aeruginosa time kill study ([3]; 5 min) [Log10 CFU/mL] | Viable counts, Pseudomonas aeruginosa time kill study ([3]; time 0) [Log10 CFU/mL] | Viable counts, Escherichia coli time kill study ([4]; 0.5 min) [Log10 CFU/mL] | Viable counts, Escherichia coli time kill study ([4]; 1 min) [Log10 CFU/mL] | Viable counts, Escherichia coli time kill study ([4]; 5 min) [Log10 CFU/mL] | Viable counts, Escherichia coli time kill study ([4]; time 0) [Log10 CFU/mL] | Viable counts, Staphylococcus aureus time kill study ([5]; 0.5 min) [Log10 CFU/mL] | Viable counts, Staphylococcus aureus time kill study ([5]; 1 min) [Log10 CFU/mL] | Viable counts, Staphylococcus aureus time kill study ([5]; 5 min) [Log10 CFU/mL] | Viable counts, Staphylococcus aureus time kill study ([5]; time 0) [Log10 CFU/mL] | MIC [6] [µg/mL] | MIC Candida albicans ([6]; n = 1) [µg/mL] | further results |
| --- | --- | --- | --- | --- | --- | --- | --- | --- | --- | --- | --- | --- | --- | --- | --- | --- | --- | --- | --- | --- | --- |
| CCCCCCCCCCCCOC(=O)C(C)N(C)C.CCCCCCCCCCCCOC(=O)C(C)N(C)C.O=S(=O)(O)c1cccc2c(S(=O)(=O)O)cccc12 (stereo not drawn) [Nex-32, Dodecyl 2-(dimethylamino)propanoate heminaphthalene-1,5-disulfonate] | 6250 | 6250 | 6250 | 3130 | 3130 | 3130 | 5.62 | 4.48 | 4.12 | 5.73 | 5.77 | 4.7 | <3.52 | 6.05 | 6.31 | 6.23 | 6.2 | 6.25 | >12500 | >12500 | MIC Candida albicans ([6]; n = 2): >12500 µg/mL; pH (pH (Table 1)): 3.87; MIC [7]: 1560 µg/mL; MIC S. aureus ([7]; n = 1): 1560 µg/mL; MIC S. aureus ([7]; n = 2): 1560 µg/mL; MIC [8]: >12500 µg/mL; MIC Aspergillus niger ([8]; n = 1): >12500 µg/mL; MIC Aspergillus niger ([8]; n = 2): >12500 µg/mL |
| CCCCCCCCCCCCOC(=O)C(C)N(C)C (stereo not drawn) [Nex-46, Dodecyl 2-(dimethylamino)propanoate 2-hydroxyethanesulfonate] | 6250 (≈ 21.9 mM) | 6250 (≈ 21.9 mM) | 6250 (≈ 21.9 mM) | 3130 (≈ 11 mM) | 3130 (≈ 11 mM) | 3130 (≈ 11 mM) | 4.48 | 3.7 | <3.52 | 5.67 | 5.74 | 5.91 | 3.97 | 5.87 | 6.25 | 6.21 | 6.21 | 6.26 | >12500 | >12500 | MIC Candida albicans ([6]; n = 2): >12500 µg/mL; pH (pH (Table 1)): 2.95; MIC [7]: 3130 µg/mL (≈ 11 mM); MIC S. aureus ([7]; n = 1): 3130 µg/mL (≈ 11 mM); MIC S. aureus ([7]; n = 2): 3130 µg/mL (≈ 11 mM); MIC [8]: >12500 µg/mL; MIC Aspergillus niger ([8]; n = 1): >12500 µg/mL; MIC Aspergillus niger ([8]; n = 2): >12500 µg/mL |
| CCCCCCCCCCCCOC(=O)[C@@H](C)N(C)C.Cl [Nex-56, D-Dodecyl 2-(dimethylamino)propanoate hydrochloride] | 6250 | 6250 | 6250 | 3130 | 3130 | 3130 | <4.0 | <3.70 | <3.52 | 5.56 | <4.0 | <3.70 | <3.52 | 5.92 | 6.27 | 6.16 | 5.9 | 6.33 | >12500 | >12500 | MIC Candida albicans ([6]; n = 2): >12500 µg/mL; pH (pH (Table 1)): 1.70; MIC [7]: 3130 µg/mL; MIC S. aureus ([7]; n = 1): 3130 µg/mL; MIC S. aureus ([7]; n = 2): 3130 µg/mL; MIC [8]: >12500 µg/mL; MIC Aspergillus niger ([8]; n = 1): >12500 µg/mL; MIC Aspergillus niger ([8]; n = 2): >12500 µg/mL |
